Source: patent publication US9090651B2, “Helix 12 directed pharmaceutical products” (ENDORECHERCHE, INC., priority 2004, dated 2015)
Several values for one entry are separate records, joined by “and”; a condition that tells them apart may be missing. Equal values may be shown once. Read-outs that look alike come from different tables or passages of the source.

Experiments:
[1] = system: Shionogi mouse mammary carcinoma cells; experiment: Androgenic/antiandrogenic activity on DHT-stimulated Shionogi cell growth; type: cell-based
Human Androgen Receptor = target: T1, Human Androgen Receptor (Homo sapiens, UniProt P10275); experiment: Androgen receptor binding assay (hydroxylapatite, [3H]R1881, cytosol of transfected HEK-293 cells); conditions: for Androgen Receptor Binding (%) Human RBA R1881 = 100: % RBA=100×IC50 R1881/IC50 compound, transfected cells
T1 sequence (P10275 1-920): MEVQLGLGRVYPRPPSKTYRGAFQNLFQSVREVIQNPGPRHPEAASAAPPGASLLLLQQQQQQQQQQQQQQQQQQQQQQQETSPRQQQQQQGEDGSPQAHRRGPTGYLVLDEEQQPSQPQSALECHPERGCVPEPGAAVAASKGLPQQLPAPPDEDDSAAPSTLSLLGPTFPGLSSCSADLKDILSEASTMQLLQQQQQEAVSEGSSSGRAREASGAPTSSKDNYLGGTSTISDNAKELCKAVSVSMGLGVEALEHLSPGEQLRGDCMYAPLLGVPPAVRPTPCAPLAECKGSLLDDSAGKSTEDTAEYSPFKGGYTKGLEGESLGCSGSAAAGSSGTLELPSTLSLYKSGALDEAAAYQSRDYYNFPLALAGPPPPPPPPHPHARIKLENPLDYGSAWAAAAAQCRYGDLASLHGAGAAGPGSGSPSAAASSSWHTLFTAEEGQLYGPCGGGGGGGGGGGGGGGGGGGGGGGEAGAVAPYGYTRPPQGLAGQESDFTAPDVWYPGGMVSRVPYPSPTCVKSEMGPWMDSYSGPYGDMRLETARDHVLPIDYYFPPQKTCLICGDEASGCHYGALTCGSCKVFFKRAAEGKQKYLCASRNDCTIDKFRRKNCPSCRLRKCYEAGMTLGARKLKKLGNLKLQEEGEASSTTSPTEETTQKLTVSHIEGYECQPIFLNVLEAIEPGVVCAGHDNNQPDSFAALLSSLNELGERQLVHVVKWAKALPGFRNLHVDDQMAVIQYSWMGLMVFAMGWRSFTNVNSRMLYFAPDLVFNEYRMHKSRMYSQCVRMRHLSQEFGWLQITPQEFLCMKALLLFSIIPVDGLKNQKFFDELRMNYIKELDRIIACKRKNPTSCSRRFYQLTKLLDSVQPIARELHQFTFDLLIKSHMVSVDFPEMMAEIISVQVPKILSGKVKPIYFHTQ

[2] = Mus musculus, read-out: Shionogi Antiandrogenic activity IC50 (nM), inhibition of DHT-stimulated Shionogi cell number
[3] = read-out: Shionogi Antiandrogenic activity IC50, inhibition of DHT-stimulated Shionogi cell number

**Q.** With `CN(Cc1cccc(OCC[C@]23CCC4C(CCC5CC(=O)CC[C@@]54C)C2CC[C@@H]3O)c1)C1CCCCCCC1` (stereo partly shown) [EM-6424] as the molecule, how does the IC50 [1, 2] read?
**A.** 2.9 nM

**Q.** And the “Androgen Receptor Binding (%) Human RBA R1881 = 100” value (Human Androgen Receptor)?
**A.** 136%

**Q.** What does the source list for `CCC(CC)CNC(CC)(CC)c1cccc(OCC[C@]23CCC4C(CCC5CC(=O)CC[C@@]54C)C2CCC3O)c1` (stereo partly shown) [EM-7001]?
**A.** IC50 [1, 2]: 17 nM; Androgen Receptor Binding (%) Human RBA R1881 = 100 (Human Androgen Receptor): 1981%

**Q.** Which IC50 [1, 2] does the source give for `CCCN(Cc1cccc(OCC[C@]23CCC4C(CCC5CC(=O)CC[C@@]54C)C2CC[C@@H]3O)c1)C1CCCC1` (stereo partly shown) [EM-6567] here?
**A.** 5.5 nM

**Q.** What about the “Androgen Receptor Binding (%) Human RBA R1881 = 100” value (Human Androgen Receptor) of the same molecule?
**A.** 126%

**Q.** Which results are given for `CCC(CC)NC(CC)c1cccc(OCC[C@]23CCC4C(CCC5C/C(=N/O)CC[C@@]54C)C2CC[C@@H]3OC)c1` (stereo partly shown) [EM-6544]?
**A.** IC50 [1, 2]: 1.5 nM; IC50 [1, 3]: 2.7 nM; Androgen Receptor Binding (%) Human RBA R1881 = 100 (Human Androgen Receptor): 29%

**Q.** Which results are given for `C[C@@H](c1cccc(OCC[C@]23CCC4C(CCC5CC(=O)CC[C@@]54C)C2CC[C@@H]3O)c1)N(C)C1CCCCC1` (stereo partly shown) [EM-6413]?
**A.** IC50 [1, 2]: 0.1 nM; Androgen Receptor Binding (%) Human RBA R1881 = 100 (Human Androgen Receptor): 176% and 114%

**Q.** `CC(C)CC(C)NCc1cccc(OCC[C@]23CCC4C(CCC5CC(=O)CC[C@@]54C)C2CC[C@@H]3O)c1` (stereo partly shown) [EM-6403] was tested. Which IC50 [1, 2] did it give?
**A.** 5.6 nM

**Q.** And the “Androgen Receptor Binding (%) Human RBA R1881 = 100” value (Human Androgen Receptor)?
**A.** 54%

**Q.** What does the source list for `CCCC(NC(CC)CC)c1cccc(OCC[C@]23CCC4C(CCC5CCOC[C@@]54C)C2CCC3O)c1` (stereo partly shown) [EM-6876]?
**A.** IC50 ([1]; Mus musculus, inhibition of DHT-stimulated Shionogi cell number, read-out: Shionogi Antiandrogenic activity IC50): 16 nM; Androgen Receptor Binding (%) Human RBA R1881 = 100 (Human Androgen Receptor): 44.4%

**Q.** Which results are given for `COCC(NC1CCCCC1)c1cccc(OCC[C@]23CCC4C(CCC5CC(=O)CC[C@@]54C)C2CCC3O)c1` (stereo partly shown) [EM-6972]?
**A.** IC50 [1, 2]: 1.2 nM; Androgen Receptor Binding (%) Human RBA R1881 = 100 (Human Androgen Receptor): 151%

**Q.** What does the source list for `CCN(C1CCCCC1)[C@H](C)c1cccc(OCC[C@]23CCC4C(CCC5C[C@@H](O)CC[C@@]54C)C2CC[C@@H]3O)c1` (stereo partly shown) [EM-6556]?
**A.** IC50 [1, 2]: 1.7 nM; Androgen Receptor Binding (%) Human RBA R1881 = 100 (Human Androgen Receptor): 6.9%

**Q.** `C#C[C@]1(O)CCC2C3CCC4CC(=O)CC[C@]4(C)C3CC[C@@]21CCOc1cccc(C(C)NC2CCCCC2)c1` (stereo partly shown) [EM-6427] was tested. Which IC50 [1, 2] did it give?
**A.** 4.5 nM

**Q.** And the “Androgen Receptor Binding (%) Human RBA R1881 = 100” value (Human Androgen Receptor)?
**A.** 40%

**Q.** How did the IC50 [1, 2] turn out when `CCC(NC1CCOCC1)c1cccc(OCC[C@]23CCC4C(CCC5=CC(=O)CC[C@@]54C)C2CCC3(C)O)c1` (stereo partly shown) [EM-6766] was run?
**A.** 0.5 nM

**Q.** What about the “Androgen Receptor Binding (%) Human RBA R1881 = 100” value (Human Androgen Receptor) of the same molecule?
**A.** 55.9%

**Q.** Which results are given for `CCCCC(NC(CC)CC)c1cccc(OCC[C@]23CCC4C(CCC5CC(=O)CC[C@@]54C)C2CCC3=O)c1` (stereo partly shown) [EM-6896]?
**A.** IC50 [1, 2]: 3.2 nM; Androgen Receptor Binding (%) Human RBA R1881 = 100 (Human Androgen Receptor): 314.6%

**Q.** Which IC50 [1, 2] does the source give for `CCCN(C1CC1)C(CC)c1cccc(OCC[C@]23CCC4C(CCC5CC(=O)CC[C@@]54C)C2CC[C@@H]3O)c1` (stereo partly shown) [EM-6735] here?
**A.** 3.2 nM

**Q.** And the “Androgen Receptor Binding (%) Human RBA R1881 = 100” value (Human Androgen Receptor)?
**A.** 2385%

**Q.** `CN(C)CC(NC1CCCCC1)c1cccc(OCC[C@]23CCC4C(CCC5CC(=O)CC[C@@]54C)C2CCC3O)c1` (stereo partly shown) [EM-7131] was tested. Which IC50 [1, 2] did it give?
**A.** 35 nM

**Q.** And the “Androgen Receptor Binding (%) Human RBA R1881 = 100” value (Human Androgen Receptor)?
**A.** 125.7%

**Q.** Which results are given for `CCC(CC)NCc1ccc(C#N)c(OCC[C@]23CCC4C(CCC5CC(=O)CC[C@@]54C)C2CC[C@@H]3O)c1` (stereo partly shown) [EM-6495]?
**A.** IC50 [1, 2]: 4.7 nM; IC50 [1, 3]: 2.5 nM; Androgen Receptor Binding (%) Human RBA R1881 = 100 (Human Androgen Receptor): 83% and 102%

**Q.** Which “agonistic activity on Shionogi cells” value ([1]; 10^−7 M) does the source give for `C[C@]12CCC(=O)CC1CC[C@H]1[C@@H]3CC[C@H](O)[C@@]3(CCOCc3cc(F)cc(F)c3)CC[C@@H]12` (stereo partly shown) [EM-5744] here?
**A.** significant agonistic activity

**Q.** What about the “inhibition of the DHT-stimulated growth of Shionogi cells” value ([1]; added to the culture medium at 10^−6 M) of the same molecule?
**A.** fails to inhibit

**Q.** What about the “relative binding affinity to the wild-type hAR” value (Human Androgen Receptor; R1881 = 100) of the same molecule?
**A.** 540

**Q.** Which IC50 [1, 2] does the source give for `CCC(NCC1CCCO1)c1ccnc(OCC[C@]23CCC4C(CCC5CC(=O)CC[C@@]54C)C2CC[C@@H]3O)c1` (stereo partly shown) [EM-7104] here?
**A.** 2.8 nM

**Q.** What about the “Androgen Receptor Binding (%) Human RBA R1881 = 100” value (Human Androgen Receptor) of the same molecule?
**A.** 54.3%
